Laboratory results published in ChEMBL document CHEMBL6087471, “A Collection of Novel Antitumor Agents That Regulate Lipid Metabolism in the Tumor Microenvironment” (J Med Chem, 2025).

Assays:
[1] = Inhibition of CPT1 (unknown origin); parameters: species or system Homo sapiens
[2] = target: Autotaxin (Homo sapiens, UniProt Q13822)
Description: Inhibition of ATX (unknown origin)

[3] = Inhibition of ACC1 (unknown origin); parameters: species or system Homo sapiens
[4] = tested on: MCF7; assay: Antiproliferative activity against human MCF7 cells assessed as reduction in cell growth; assay type: functional, cell-based
[5] = target: Platelet glycoprotein 4 (Homo sapiens, UniProt P16671); assay: Inhibition of N-terminal Flag-tagged human CD36
[6] = Binding affinity to rat liver mitochondria CPT1 assessed as inhibition constant measured for 6 mins by Liquid scintillation counting method
[7] = Inhibition of rat CPT2
[8] = target: T1, Diacylglycerol O-acyltransferase 2 (Homo sapiens, UniProt Q96PD7); assay: Inhibition of DGAT2 (unknown origin)
T1 sequence (Q96PD7 whole entry): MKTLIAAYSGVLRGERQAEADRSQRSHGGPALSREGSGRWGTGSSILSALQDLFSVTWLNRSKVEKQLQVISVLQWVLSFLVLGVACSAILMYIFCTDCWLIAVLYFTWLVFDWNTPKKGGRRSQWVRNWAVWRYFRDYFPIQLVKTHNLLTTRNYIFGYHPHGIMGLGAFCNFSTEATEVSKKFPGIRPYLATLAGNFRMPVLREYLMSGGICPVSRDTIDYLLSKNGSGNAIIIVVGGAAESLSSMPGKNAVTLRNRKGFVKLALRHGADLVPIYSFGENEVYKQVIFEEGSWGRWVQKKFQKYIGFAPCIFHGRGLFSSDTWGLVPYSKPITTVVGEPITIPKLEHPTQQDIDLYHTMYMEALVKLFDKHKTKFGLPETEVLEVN

[9] = target: T2, Bile acid receptor (Homo sapiens, UniProt Q96RI1); assay: Agonist activity at FXR (unknown origin)
T2 sequence (Q96RI1 whole entry): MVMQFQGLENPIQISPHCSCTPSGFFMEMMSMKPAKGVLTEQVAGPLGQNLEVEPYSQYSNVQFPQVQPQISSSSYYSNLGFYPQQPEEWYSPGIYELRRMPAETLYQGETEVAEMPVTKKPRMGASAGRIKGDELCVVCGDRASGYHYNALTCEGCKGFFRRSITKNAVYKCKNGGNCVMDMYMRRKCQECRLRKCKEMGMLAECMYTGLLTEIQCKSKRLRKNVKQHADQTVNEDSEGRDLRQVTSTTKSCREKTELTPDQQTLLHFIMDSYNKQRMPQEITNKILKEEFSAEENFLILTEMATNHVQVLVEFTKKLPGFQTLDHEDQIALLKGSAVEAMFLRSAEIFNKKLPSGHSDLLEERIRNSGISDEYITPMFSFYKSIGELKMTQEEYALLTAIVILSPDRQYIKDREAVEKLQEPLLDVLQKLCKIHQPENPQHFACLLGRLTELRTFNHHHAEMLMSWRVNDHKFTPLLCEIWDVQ

[10] = tested on: PC-3; assay: Antiproliferative activity against human PC-3 cells; assay type: functional, cell-based
[11] = tested on: A549; assay: Antiproliferative activity against human A549 cells; assay type: functional, cell-based
[12] = tested on: SK-OV-3; assay: Antiproliferative activity against human SK-OV-3 cells; assay type: functional, cell-based

Platelet glycoprotein 4, sequence (P16671 whole entry): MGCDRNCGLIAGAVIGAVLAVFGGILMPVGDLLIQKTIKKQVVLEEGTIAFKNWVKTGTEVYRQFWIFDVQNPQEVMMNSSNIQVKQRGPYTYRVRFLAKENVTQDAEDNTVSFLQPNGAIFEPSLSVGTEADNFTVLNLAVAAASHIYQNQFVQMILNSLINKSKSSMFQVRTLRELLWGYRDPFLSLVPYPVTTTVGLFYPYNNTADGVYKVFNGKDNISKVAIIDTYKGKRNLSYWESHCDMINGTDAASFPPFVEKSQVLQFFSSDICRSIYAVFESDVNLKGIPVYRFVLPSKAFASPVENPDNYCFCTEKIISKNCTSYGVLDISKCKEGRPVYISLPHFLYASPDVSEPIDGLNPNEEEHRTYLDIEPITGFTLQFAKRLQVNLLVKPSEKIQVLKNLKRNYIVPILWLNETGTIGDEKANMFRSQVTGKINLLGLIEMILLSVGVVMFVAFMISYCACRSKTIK

Work on `COc1ccc(CN2CCN(CCCSc3cc(C(C)(C)C)c(O)c(C(C)(C)C)c3)CC2)c(OC)c1OC` yielded an IC50 [1] of 50800 nM.
`C[C@H](CCC(=O)O)[C@H]1CC[C@H]2[C@@H]3[C@@H](O)C[C@@H]4C[C@H](O)CC[C@]4(C)[C@H]3CC[C@]12C` [URSODIOL] showed an IC50 [2] of 2800 nM.
`Cc1cc(C)c(-c2[nH]nc(C)c2C)cc1C(=O)N1CC(c2ccc(C#N)cc2)C1` showed an IC50 [3] of 20 nM.
Work on `CCc1nc2c(C)cc(-c3ccc(CN(CCO)CCO)cc3)cn2c1NC(=O)NCc1ccc(Cl)cc1` yielded an IC50 [2] of 3.98 nM.
For `Cc1sc2ncnc(NC3CCN(Cc4ccccc4)C3)c2c1C` (stereo unspecified), the IC50 [4] was 0.3 nM.
With `COc1ccc(-c2ccccc2)cc1NS(=O)(=O)c1cc(Cl)cc(Cl)c1O` the IC50 [1] was 130 nM.
`CCCCCCCCCCC[C@@H](C[C@@H]1OC(=O)[C@H]1CCCCCC)OC(=O)[C@H](CC(C)C)NC=O` [ORLISTAT] gave an IC50 [4] of 250 nM.
`COCc1nc(C(F)(F)F)[nH]c1-c1cc(C(=O)N2CC(c3ccc(C#N)cc3)C2)c(C)cc1C` showed an IC50 [3] of 40 nM.
Molecule `CCCCCCCC/C=C\CCCCCCCC(=O)ON1C(=O)CC(S(=O)(=O)O)C1=O` (stereo unspecified) has an IC50 [5] of 4000 nM.
Molecule `CCOC(=O)c1sc2c(c1C)c(=O)n(CCO)c(=O)n2CCc1ccccc1` has an IC50 [3] of 3.9 nM.
Work on `COC(=O)c1cc(Cl)c(O)c(S(=O)(=O)Nc2cc(-c3ccccc3)c(F)cc2F)c1` yielded an IC50 [1] of 44 nM.
`O=C(c1c2ccccc2cc2ccccc12)N1CCC(N2CCC[C@@H](C(=O)N3CCOCC3)C2)CC1` showed an IC50 [3] of 116 nM.
With `COc1ccccc1[C@H](Cn1c(=O)n(C(C)(C)C(=O)O)c(=O)c2c(C)c(-c3ncco3)sc21)OC1CCOCC1` [FIRSOCOSTAT] the IC50 [3] was 2.1 nM.
With `O=C1Nc2ccccc2-c2cc(c(F)cc2F)NS(=O)(=O)c2cc1cc(Cl)c2O` the IC50 [1] was 69.7 nM.
`COc1cc(C(=O)N2CCC3(CC2)CC(=O)c2cc(-c4cncc(C(=O)O)c4)ccc2O3)cc2c1c(C)cn2C1CC1` showed an IC50 [3] of 3 nM.
`CCCCCCCCCCCCCCC[C@@]1(O)C[N+](C)(C)C[C@@H](CC(=O)[O-])O1` showed a Ki [6] of 4200 nM.
`CCCCCCCCCCCCCC(=O)Nc1ccc(CP(=O)(O)O)cc1` gave an IC50 [2] of 5.6 nM.
Work on `O=C(c1c2ccccc2cc2ccccc12)N1CCN(C2CCN(C(=O)N3CCOCC3)CC2)CC1` yielded an IC50 [3] of 239 nM.
Work on `CCCCCCCCCCCCCCNC(=O)N[C@H](CC(=O)[O-])C[N+](C)(C)C` yielded an IC50 [7] of 240 nM.
`CC(C)N(C(=O)n1nnn(-c2c(F)cccc2F)c1=O)c1ccc(C(=O)O)cc1Oc1ccccc1` showed an IC50 [4] of 19 nM.
With `O=C(NC1(C(=O)N[C@@H]2CC(=O)c3ccccc3N(Cc3cc(C(F)(F)F)cc(C(F)(F)F)c3)C2=O)CC1)c1ccc(F)cc1` the IC50 [8] was greater than 75.5 nM.
Molecule `CC(=O)N1CCC(C(=O)N2CCC(N3CCN(C(=O)c4cc(-c5ccc(C)cc5)nc(-c5ccc(C)cc5)c4)CC3)CC2)CC1` has an IC50 [3] of 76 nM.
In the case of `CC(C)(C)OC(=O)NC1(C(=O)N[C@@H]2CC(=O)c3ccccc3N(Cc3cc(C(F)(F)F)cc(C(F)(F)F)c3)C2=O)CC1`, the IC50 [8] is reported as greater than 75.5 nM.
`Cc1cc(-c2nc3ccc(C(=O)O)cc3n2C)ccc1OCc1c(-c2c(Cl)cccc2Cl)noc1C(C)C` gave an EC50 [9] of 13.4 nM.
In the case of `COc1ccc(CN2CCNCC2)c(OC)c1OC` [TRIMETAZIDINE], the IC50 [1] is reported as 759000 nM.
Molecule `Cc1nc(-c2cc(C(=O)N3CCC(c4ccc(C#N)cc4)CC3)c(C)cc2C2CCC2)n[nH]1` has an IC50 [3] of 40 nM.
Molecule `CCCCCCOc1cccc(OCCCCNC(=O)N[C@@H](CC(=O)O)CN(C)C)c1` has an IC50 [1] of 44 nM.
Work on `CC(C)(CCCCCC(O)CCCCCC(C)(C)C(=O)O)C(=O)O` [BEMPEDOIC ACID] yielded an IC50 [10] of 26000 nM, an IC50 [11] of 24000 nM and an IC50 [12] of 53000 nM.
With `C=C1C(=O)O[C@H](CCCCCCCC)[C@H]1C(=O)O` the IC50 [3] was 460 nM.
